Like-named read-outs stand apart in the source and are kept apart here. Non-standard residues stand in square brackets, D forms with d.
Tests used:
[1] = test system: LPS-induced TNF-α secretion in bovine PBMCs; test: HDP inhibition of LPS-induced TNF secretion (capture ELISA); assay type: cell-based; settings: 100 ng/ml LPS, various peptide concentrations
Source text: As patterns expression are not necessarily predictive of final biological responses we sought to confirm the immunomodulatory capabilities of RI-BMAP-28 through independent analysis. Specifically, the ability of the two isomers to influence secretion of the pro-inflammatory cytokine tumor necrosis factor alpha (TNF-α) following LPS stimulation was examined. Secretion of TNF-α is a well established biomarker of inflammation responses (52).
The secretion of TNF in culture supernatants was quantified with a capture ELISA. Inhibition of LPS-induced TNF secretion was evaluated by adding various concentrations of BMAP-28 (▴) or retro-inverso RI-BMAP-28 (▪) to duplicate PBMCs cultures. The data presented experiments performed in a single animal. While all three animals gave the same trend of responses, the magnitude of these responses is unique for each animal. […]
Untreated cells or cells treated with LPS for 24 h, in the presence or absence of the HDPs, were centrifuged at 1000×g for 5 min followed by 10,000×g for 10 min to obtain cell-free tissue culture supernatant samples. […] TNF-α secretion was monitored with a species-specific capture ELISA (37). […] The concentration of the cytokine was quantified by establishing a standard curve with serial dilutions of the recombinant human TNF-α (eBioscience, San Diego, Calif.) or bovine TNFα (Genetech Inc. San Francisco, Calif.).

[2] = test system: LPS-induced expression of BIRC3, CCL20, IL-8 and IL-10 in bovine monocytes; test: HDP inhibition of LPS-induced gene expression (qRT-PCR); assay type: cell-based; settings: 100 ng/ml LPS; for reduction of LPS-induced CCL20 expression / reduction of LPS-induced IL-8 expression / reduction of LPS-induced IL-10 expression: 0.5 μg/mL peptide; for suppression of the induction of LPS-induced genes: 5 μg/mL peptide, 4 hours
Source text: The induction of inflammation responses by lipopolysaccharide (LPS) has clinical significance as a mechanism of sepsis and also serves as a biomarker for the ability of HDPs to mediate anti-endotoxic function. Our investigation focuses on patterns of expression of genes (BIRC3, CCL20, IL-8 and IL-10) identified through microarray analysis to show the most significant levels of differential expression in response to LPS-stimulation in monocytes, Mookherjee et al., J. Leokocyte. Biol. 80:1-12, 2006; Mookherjee et al., J. Immunol. 176: 2455-2464, 2006. […] Biol. 80:1-12, 2006; Mookherjee et al., J. Immunol. 176: 2455-2464, 2006.
The data presented represents the average of experiments performed in triplicate for a single animal. While all three animals, each tested in triplicate, gave the same trend of responses, the magnitude of these responses is unique for each animal. This is typical of the animal-to-animal variation in the magnitude of LPS-induced responses that has been observed by our group.
Monocytes were purified from isolated PBMCs by MACS® purification using CD14 microbeads (Miltenyi Biotec Inc., Auburn, Calif.). Monocytes were then plated at 5×10^6 cells/well in 6-well plates using Aim V medium (Gibco™, Invitrogen Corp., San Diego, Calif.) supplemented with 10% heat-inactivated fetal bovine serum (Gibco™) and rested for 19 hours before stimulation.
The ability of BMAP-28 and RI-BMAP-28 to modulate patterns of gene expression induced by endotoxin stimulation was determined in cultured monocytes. Cultured monocytes were stimulated with purified LPS (100 ng/ml) in the presence or absence of different concentrations of antimicrobial peptides for 4 hours. […] Biol. 80:1-12, 2006; Mookherjee et al., J. Immunol. 176: 2455-2464, 2006, and in vivo, Clapp et al., Am. J. Respir. Cri. Care Med. 150: 611-617, 1994. Cells were pelleted and stored at −81° C.
RNA was extracted from the bovine PBMCs with the RNeasy Mini Kit (Qiagen Inc., Ontario, Canada) and the RNase-free DNase (Qiagen Inc.) as per the manufacturer's protocols.
Quantitive real-time PCR (qRT-PCR) was performed using Invitrogen's SuperScript™ III Platinum® two step qRT-PCR kit with SYBR® Green (Invitrogen Corp., San Diego, Calif.) on the Bio-Rad (Hercules, Calif.) iCycler. Briefly, 250 ng total RNA, 8 μL 2×RT reaction mix, 2 μL RT enzyme, and DNase/RNase free water were added to a final volume of 20 μL. The mixture was incubated at 25° C. for 5 minutes, followed by 1 hour incubation at 50° C. and a final incubation of 15 min at 70° C. to produce the cDNA. The PCR reaction was carried out as per the manufacturer's instructions (Invitrogen Corp.) using a mix of Platinum® SYBR® Green qRT-PCR Super-Mix UDG, the template cDNA, […] of the primer mix, and DNase/RNase free water up to 15 μL total volume per well. Cycling conditions were carried out as indicated by the Invitrogen's SuperScript™ III Platinum® two-step qRT-PCR kit with SYBR® Green.

bovine erythrocytes = test: Cytotoxicity (hemolysis) assay; assay type: cell-based
Procedure: To determine the cytotoxicity of BMAP-28 and RI-BMAP-28 the peptides were incubated overnight at a range of concentrations in the presence of bovine erythrocytes. Consistent with what has been reported by others, BMAP-28 began to exert a cytotoxic effect at concentrations as low as 30 μg/mL. Complete hemolysis was observed by 200 μg/mL of BMAP-28. […] As toxicity currently represents a limiting factor to the systemic administration of HDPs this finding could be of particular significance.
Hemolysis was performed by incubating a 1% (v/v) suspension of bovine erythrocytes in phosphate buffered saline (pH 7.4) with a series of peptide concentrations for 12 hours at 37° C. Samples were then centrifuged and the supernatant absorbance read at 415 nm. Total hemolysis was obtained by resuspending in cells in water rather than PBS. Results are the average from four independent experiments.
Cytotoxicity assays were performed as based upon previously established protocols, Chen et al., Chem. Biol. Drug Des. 67: 162-173, 2006. Briefly, peptide samples were added to 1% bovine erythrocytes in phosphate-buffered saline and reactions were incubated at 37° C. for 18 h in microtiter plates. Appropriate dilutions of the peptides were made fresh prior to each MHC trial in HDP dilution buffer (0.2% BSA, 0.01% acetic acid) and added following addition of the erythrocytes in the appropriate microtiter plate well position. Hemolysis was determined by withdrawing aliquots from the assays, removing unlysed erythrocytes by centrifugation (800×g) and determining which peptide concentrations cause hemoglobin release. Hemoglobin release was determined spectrophotometrically at 570 nm. A sample of 1% erythrocytes with no added peptide served as a non-lysis control. As erythrocytes were incubated in an isotonic medium, no detectable release (<1% of that released upon complete hemolysis) of hemoglobin was observed from this control.

mice = settings: cited from earlier work
PhoQ = target: T1, PhoQ (Salmonella typhimurium, UniProt P0DM80); test: PhoPQ reporter assay (PhoN-PhoA fusion); assay type: cell-based, S. typhimurium strain CS 120; settings: 5 μg/mL peptide, 5 mM magnesium
T1 construct: S. typhimurium strain CS 120, which expresses a PhoP-regulated fusion between Salmonella acid phosphatase (PhoN) and E. coli alkaline phosphatase (PhoA); endogenous in cells; host or cells: S. typhimurium strain CS 120
Procedure: S. typhimurium strain CS 120, which expresses a PhoP-regulated fusion between Salmonella acid phosphatase (PhoN) and E. coli alkaline phosphatase (PhoA), was utilized for the analysis of PhoPQ activation. The activity of this fusion protein was measured in media containing varying concentrations of the peptides and/or magnesium. For growth under PhoPQ activating conditions the growth media was supplemented with 50 μM MgCl2. Growth under PhoPQ-repressive conditions was performed in the presence of 5 mM MgCl2 as were all of the assays of peptide responses.
The ability of BMAP28 and RI-BMAP28 to initiate activation of a PhoPQ-dependent reporter was examined by incubation of bacterium in the presence of sub-lethal (5 μg/mL) concentrations of indicated peptide as well as 5 mM magnesium. Values reported represent the averages of three replicates. Activation and repression of PhoPQ by low (50 μM) and high (5 mM) magnesium respectively is also reported.
S. typhimurium strain CS 120, which expresses a PhoP-regulated fusion between Salmonella acid phosphatase (PhoN) and E. coli alkaline phosphatase (PhoA) was utilized for analysis of PhoPQ activation. The activity of this fusion protein was measured in salt-free LB media containing varying concentrations of the peptides and/or magnesium. For growth under PhoPQ activating conditions the growth media was supplemented with 50 μM MgCl2. […]

[3] = test system: Salmonella typhimurium ATCC 14028, Escherichia coli O157:H7, Serratia marcescens ATCC 274, Yersinia enterocolitica O:9 E40 (pYV40), Pseudomonas cepacia ATCC …; test: Minimal inhibitory concentration, modified broth microdilution; assay type: cell-based
Source text: The present study examined the direct antimicrobial activity of BMAP-28 and RI-BMAP-28 against a series of bacterium which are of medical interest. […] This conclusion is also consistent with the maintained sequence and structure of the RI-BMAP-28. Antimicrobial activity, which is dependent upon non-chiral interactions with bacterial membranes, is anticipated to have the lowest structural requirements for maintenance of activity.
The bacterial strains used for this investigation were Salmonella typhimurium ATCC 14028, Escherichia coli O157:H7, Serratia marcescens ATCC 274, Yersinia enterocolitica O:9 E40 (pYV40), Pseudomonas cepacia ATCC 53795, and Salmonella enterititidis 27655R PT4.
The MIC of the peptides were measured using a modified broth microdilution method, Wu et al., Antimicrob. Agents Chemother. 43: 1274-1276, 1999, in LB medium, whereby the assay was performed in sterile 96-well, round-bottom polypropylene microtitre plates with an inoculum of 5×10^5 bacteria per mL. The plates were incubated at 37° C. for 12 h, solutions spotted onto LB-agar plates and the MIC was taken as the concentration at which no growth was observed.

T1 sequence (P0DM80 whole entry, the tested form may be a part): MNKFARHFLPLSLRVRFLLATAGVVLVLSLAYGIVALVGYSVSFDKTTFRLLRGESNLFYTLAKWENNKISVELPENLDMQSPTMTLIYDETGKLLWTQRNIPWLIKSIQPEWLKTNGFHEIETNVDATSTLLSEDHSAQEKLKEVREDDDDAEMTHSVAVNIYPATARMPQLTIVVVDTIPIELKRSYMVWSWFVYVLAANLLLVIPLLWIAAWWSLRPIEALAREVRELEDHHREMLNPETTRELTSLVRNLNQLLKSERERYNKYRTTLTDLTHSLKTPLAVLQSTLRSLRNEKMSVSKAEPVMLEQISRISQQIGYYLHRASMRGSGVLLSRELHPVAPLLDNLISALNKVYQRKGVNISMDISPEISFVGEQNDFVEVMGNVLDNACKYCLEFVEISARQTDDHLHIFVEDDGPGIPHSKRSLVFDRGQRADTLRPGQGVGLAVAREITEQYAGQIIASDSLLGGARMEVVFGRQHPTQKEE

Substance: NH2-GLRSLGRKILRAWKKYGPIIVPIIRIG-COOH (H-GLRSLGRKILRAWKKYGPIIVPIIRIG-OH) [BMAP-28, natural host defense peptide, a 27 amino acid proteolytic product of the antibacterial peptide BMAP-28 precursor protein]
- inhibition of LPS-induced TNF-α secretion [1]: dose-dependent inhibition
- reduction of LPS-induced CCL20 expression [2]: two-fold reduction
- reduction of LPS-induced IL-8 expression [2]: four-fold
- reduction of LPS-induced IL-10 expression [2]: two-fold reduction
- suppression of the induction of LPS-induced genes [2]: four to five-fold suppression
- concentration at which a cytotoxic effect begins (bovine erythrocytes): 30 µg/mL
- concentration giving complete hemolysis (bovine erythrocytes): ≤ 200 µg/mL
- LD50 (mice; administered intravenously): 15 mg/kg
- LD50 (mice; mice, i.p. administration): approximately 40 mg/kg
- activation of PhoPQ-dependent reporter (PhoQ): identical patterns of activation

Substance: D-amino acids of NH2-GIRIIPVIIPGYKKWARLIKRGLSRLG-COOH (H-G[dI][dR][dI][dI][dP][dV][dI][dI][dP]G[dY][dK][dK][dW][dA][dR][dL][dI][dK][dR]G[dL][dS][dR][dL]G-OH; also: retro-inverso) [RI-BMAP-28, retro-inversed form of BMAP-28]
- potency as direct antimicrobial agent versus natural isomer ([3]; against a spectrum of bacteria): 2-3 fold
- MIC values relative to that of the natural peptide ([3]; all strains tested, LB medium, 37° C., 12 h): half to a third
- inhibition of LPS-induced TNF-α secretion [1]: dose-dependent inhibition
- reduction of LPS-induced CCL20 expression [2]: two-fold reduction
- reduction of LPS-induced IL-8 expression [2]: four-fold
- reduction of LPS-induced IL-10 expression [2]: two-fold reduction
- suppression of the induction of LPS-induced genes [2]: four to five-fold suppression
- cytotoxic effects over the range of peptide concentrations examined (bovine erythrocytes; 1% bovine erythrocytes in PBS, overnight, 37° C.): did not exhibit any cytotoxic effects
- activation of PhoPQ-dependent reporter (PhoQ): identical patterns of activation

From US9102754B2, “Immunomodulatory compositions and methods for treating disease with modified host defense peptides” (priority 2007, dated 2015)
